According to ChEMBL document CHEMBL4346757, “Synthesis and biological evaluation of 7-methoxy-1-(3,4,5-trimethoxyphenyl)-4,5-dihydro-2H-benzo[e]indazoles as new colchicine site inhibitors” (Bioorg Med Chem Lett, 2019):

Tests used:
Format in all cases: functional
UACC-257 [1] = test: Growth inhibition of human UACC257 cells assessed as cell growth at 0.01 uM after 48 hrs by SRB assay relative to control; details: UACC-257, 48 h, read-out: Activity
MDA-MB-468 = test: Growth inhibition of human MDA-MB-468 cells assessed as cell growth at 1 uM after 48 hrs by SRB assay relative to control; details: MDA-MB-468, 48 h, read-out: Activity
NCI-H322M = test: Growth inhibition of human NCI-H322M cells assessed as cell growth at 10 uM after 48 hrs by SRB assay relative to control; details: read-out: Activity
MOLT-4 [2] = test: Growth inhibition of human MOLT4 cells assessed as cell growth at 1 uM after 48 hrs by SRB assay relative to control; details: MOLT-4, 48 h, read-out: Activity
Hs-578T [3] = test: Growth inhibition of human Hs 578T cells assessed as cell growth at 10 uM after 48 hrs by SRB assay relative to control; details: read-out: Activity
MDA-MB-231 = test: Growth inhibition of human MDA-MB-231/ATCC cells assessed as cell growth at 0.01 uM after 48 hrs by SRB assay relative to control; details: MDA-MB-231, 48 h, read-out: Activity
SK-MEL-2 = test: Growth inhibition of human SK-MEL-2 cells assessed as cell growth at 0.1 uM after 48 hrs by SRB assay relative to control; details: SK-MEL-2, 48 h, read-out: Activity
SNB-75 [4] = test: Growth inhibition of human SNB75 cells assessed as cell growth at 10 uM after 48 hrs by SRB assay relative to control; details: SNB-75, 48 h, read-out: Activity
RPMI-8226 = test: Growth inhibition of human RPMI8226 cells assessed as cell growth at 0.01 uM after 48 hrs by SRB assay relative to control; details: RPMI-8226, 48 h, read-out: Activity
SK-MEL-28 = test: Growth inhibition of human SK-MEL-28 cells assessed as cell growth at 1 uM after 48 hrs by SRB assay relative to control; details: SK-MEL-28, 48 h, read-out: Activity
A498 = test: Cytotoxicity against human A498 cells assessed as growth inhibition after 48 hrs by SRB assay; details: A498, 48 h
KM12 = test: Growth inhibition of human KM12 cells assessed as cell growth at 1 uM after 48 hrs by SRB assay relative to control; details: KM12, 48 h, read-out: Activity
SK-MEL-5 = test: Growth inhibition of human SK-MEL-5 cells assessed as cell growth at 1 uM after 48 hrs by SRB assay relative to control; details: SK-MEL-5, 48 h, read-out: Activity
MOLT-4 [5] = test: Growth inhibition of human MOLT4 cells assessed as cell growth at 100 uM after 48 hrs by SRB assay relative to control; details: MOLT-4, 48 h, read-out: Activity
Hs-578T [6] = test: Growth inhibition of human Hs 578T cells assessed as cell growth at 100 uM after 48 hrs by SRB assay relative to control; details: read-out: Activity
SF-295 = test: Growth inhibition of human SF295 cells assessed as cell growth at 0.01 uM after 48 hrs by SRB assay relative to control; details: SF-295, 48 h, read-out: Activity
IGROV-1 = test: Cytotoxicity against human IGROV1 cells assessed as growth inhibition after 48 hrs by SRB assay; details: IGROV-1, 48 h
SNB-75 [7] = test: Growth inhibition of human SNB75 cells assessed as cell growth at 1 uM after 48 hrs by SRB assay relative to control; details: SNB-75, 48 h, read-out: Activity
UACC-257 [8] = test: Cytotoxicity against human UACC257 cells assessed as growth inhibition after 48 hrs by SRB assay; details: UACC-257, 48 h
PC-3 = test: Growth inhibition of human PC3 cells assessed as cell growth at 100 uM after 48 hrs by SRB assay relative to control; details: PC-3, 48 h, read-out: Activity
MCF7 = test: Cytotoxicity against human MCF7 cells assessed as growth inhibition after 48 hrs by SRB assay; details: MCF7, 48 h
K562 = test: Growth inhibition of human K562 cells assessed as cell growth at 0.01 uM after 48 hrs by SRB assay relative to control; details: K562, 48 h, read-out: Activity
SK-OV-3 = test: Growth inhibition of human SKOV3 cells assessed as cell growth at 0.01 uM after 48 hrs by SRB assay relative to control; details: SK-OV-3, 48 h, read-out: Activity
HCC 2998 = test: Growth inhibition of human HCC2998 cells assessed as cell growth at 0.01 uM after 48 hrs by SRB assay relative to control; details: HCC 2998, 48 h, read-out: Activity
U-251 = test: Growth inhibition of human U251 cells assessed as cell growth at 100 uM after 48 hrs by SRB assay relative to control; details: U-251, 48 h, read-out: Activity
MOLT-4 [9] = test: Cytotoxicity against human MOLT4 cells assessed as growth inhibition after 48 hrs by SRB assay; details: MOLT-4, 48 h
SNB-75 [10] = test: Growth inhibition of human SNB75 cells assessed as cell growth at 0.1 uM after 48 hrs by SRB assay relative to control; details: SNB-75, 48 h, read-out: Activity
SNB-19 = test: Growth inhibition of human SNB19 cells assessed as cell growth at 1 uM after 48 hrs by SRB assay relative to control; details: SNB-19, 48 h, read-out: Activity
NCI/ADR-RES = test: Growth inhibition of human NCI-ADR-RES cells assessed as cell growth at 0.1 uM after 48 hrs by SRB assay relative to control; details: read-out: Activity
SF-539 = test: Growth inhibition of human SF539 cells assessed as cell growth at 100 uM after 48 hrs by SRB assay relative to control; details: SF-539, 48 h, read-out: Activity
OVCAR-4 = test: Growth inhibition of human OVCAR4 cells assessed as cell growth at 0.01 uM after 48 hrs by SRB assay relative to control; details: OVCAR-4, 48 h, read-out: Activity
[11] = read-out: LC50 (the source's name)
[12] = read-out: pLC50 (the source's name) (converted)

In the case of COc1ccc2c(c1)CCc1n[nH]c(-c3cc(OC)c(OC)c(OC)c3)c1-2, the growth at 0.01 µM (UACC-257 [1]) is reported as 47%, the growth at 1 µM (MDA-MB-468) is reported as -1% and the growth at 10 µM (NCI-H322M) is reported as 31%. It also gave a growth at 1 µM (MOLT-4 [2]) of 36%, a growth at 10 µM (Hs-578T [3]) of 9% and a growth at 0.01 µM (MDA-MB-231) of 34%. The growth at 0.1 µM (SK-MEL-2) was 40%, the growth at 10 µM (SNB-75 [4]) was 22% and the growth at 0.01 µM (RPMI-8226) was 45%. The growth at 1 µM (SK-MEL-28) was 54%, the GI50 (A498; read-out: GI50) was less than 0.01 µM and the CC50 (A498; [11]) was 55.9 µM. The TGI (A498; read-out: TGI) was less than 0.01 µM, the GI50 (A498; read-out: pGI50 (converted)) was less than 0.01 µM and the CC50 (A498; [12]) was 56.2 µM. It also gave a TGI (A498; read-out: pTGI) of less than 0.01 µM, a growth at 1 µM (KM12) of 5% and a growth at 1 µM (SK-MEL-5) of -24%. The growth at 100 µM (MOLT-4 [5]) was 6%, the growth at 100 µM (Hs-578T [6]) was -18% and the growth at 0.01 µM (SF-295) was 3%. For the same molecule, the GI50 (IGROV-1; read-out: GI50) was less than 0.01 µM, the CC50 (IGROV-1; [11]) was greater than 100 µM and the TGI (IGROV-1; read-out: TGI) was 23.7 µM. For the same molecule, the GI50 (IGROV-1; read-out: pGI50 (converted)) was less than 0.01 µM, the CC50 (IGROV-1; [12]) was greater than 100 µM and the TGI (IGROV-1; read-out: pTGI (converted)) was 24 µM. It also gave a growth at 1 µM (SNB-75 [7]) of 39%, a CC50 (UACC-257 [8]; [11]) greater than 100 µM and a TGI (UACC-257 [8]; read-out: TGI) of 34.2 µM. It also gave a CC50 (UACC-257 [8]; [12]) greater than 100 µM, a TGI (UACC-257 [8]; read-out: pTGI (converted)) of 33.9 µM and a growth at 100 µM (PC-3) of -43%. The GI50 (MCF7; read-out: GI50) was less than 0.01 µM, the LC50 (MCF7; read-out: LC50) was greater than 100 µM and the TGI (MCF7; read-out: TGI) was 12.9 µM. For the same molecule, the GI50 (MCF7; read-out: pGI50 (converted)) was less than 0.01 µM, the LC50 (MCF7; read-out: pLC50 (converted)) was greater than 100 µM and the TGI (MCF7; read-out: pTGI (converted)) was 12.9 µM. For the same molecule, the growth at 0.01 µM (K562) was 19%, the growth at 0.01 µM (SK-OV-3) was -1% and the growth at 0.01 µM (HCC 2998) was 15%. It also gave a growth at 100 µM (U-251) of -72%, a GI50 (MOLT-4 [9]; read-out: GI50) of less than 0.01 µM and a CC50 (MOLT-4 [9]; [11]) greater than 100 µM. It also gave a TGI (MOLT-4 [9]; read-out: TGI) greater than 100 µM, a GI50 (MOLT-4 [9]; read-out: pGI50 (converted)) of less than 0.01 µM and a CC50 (MOLT-4 [9]; [12]) greater than 100 µM. The TGI (MOLT-4 [9]; read-out: pTGI) was greater than 100 µM, the growth at 0.1 µM (SNB-75 [10]) was 31% and the growth at 1 µM (SNB-19) was 34%. The growth at 0.1 µM (NCI/ADR-RES) was -21%, the growth at 100 µM (SF-539) was -78% and the growth at 0.01 µM (OVCAR-4) was 41%.
